Earlier results, collected in patent publication US20240299410A1 (Woolsey Pharmaceuticals, Inc., priority 2022, published 2024).
Counter-ions that a name gives are not always drawn. Like-named read-outs stand apart in the source and are kept apart here.

What was measured:
SOD mice = conditions: cited from earlier work; for motor function: presymptomatic SOD mice, 30 mg/kg in drinking water (Günther et al. 2014)
human ALS patients = conditions: three ALS patients, 30 mg intravenously twice daily over 20 consecutive working days; cited from earlier work
[1] = humans, intravenous administration, after an hour; cited from earlier work
[2] = oral fasudil in drinking water; cited from earlier work
[3] = male SOD mice, both 30 mg/kg and 100 mg/kg (Takata 2013)

O=S(=O)(c1cccc2cnccc12)N1CCCNCC1 [fasudil, Hexahydro-1-(5-isoquinolinesulfonyl)-1H-1,4-diazepine monohydrochloride hemihydrate]
motor behavior (SOD mice; male SOD mice, 30 mg/kg and 100 mg/kg beginning at disease onset (Günther 2017)): significantly improved motor behavior
survival time (SOD mice; [3]): prolonged survival time
symptom onset (motor performance, motor neuron loss) (SOD mice; [3]): delayed symptom onset
prolonging disease duration, 100 mg/kg versus 30 mg/kg (SOD mice; presymptomatic female SOD mice, oral (Tönges et al. 2013)): not as effective at prolonging disease duration as the lower dose
outcome of compassionate use treatment (human ALS patients): no conclusive results beyond safety
mixture of fasudil and M3 in CSF [1]: 50/50

O=S(=O)(c1cccc2c(O)nccc12)N1CCCNCC1 [M3, hydroxyfasudil]
M3 in male rats relative to female rats [2]: ~7 fold

C[C@@H](N)[C@H]1CC[C@H](C(=O)Nc2ccncc2)CC1 [Y-27632]
motor function (SOD mice; female): did not significantly improve motor function
motor function (SOD mice; male): improved motor function
